Measured values as given in US8987474B2 (University of South Florida, priority 2006, dated 2015).
Values joined by “and” are separate entries in the source; they are usually repeats but may differ in a detail not shown here. Equal values may be shown once.

Target: Shp2 (Homo sapiens (Human), UniProt Q06124)
Experiment: PTP activity assay (DiFMUP substrate) with GST-Shp2
Type: biochemical
Details: for IC50: Table II, Shp2
Text: All constructs were verified by DNA sequencing.
Recombinant DEP1 was from Abcam.

Chain of Shp2 (Q06124 205-593): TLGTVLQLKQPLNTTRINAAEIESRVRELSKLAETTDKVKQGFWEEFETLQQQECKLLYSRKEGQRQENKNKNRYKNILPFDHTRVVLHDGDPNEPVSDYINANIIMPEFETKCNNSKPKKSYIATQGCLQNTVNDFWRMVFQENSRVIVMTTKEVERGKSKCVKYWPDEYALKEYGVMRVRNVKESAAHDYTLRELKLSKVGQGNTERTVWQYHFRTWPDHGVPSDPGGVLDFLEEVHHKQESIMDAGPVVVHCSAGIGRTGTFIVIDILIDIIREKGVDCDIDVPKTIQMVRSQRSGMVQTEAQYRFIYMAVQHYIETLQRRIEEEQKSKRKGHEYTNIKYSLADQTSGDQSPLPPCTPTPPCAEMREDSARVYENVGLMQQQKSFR

COC(=O)c1ccc2cc(C(=O)Nc3ccc(C(=O)O)cc3)ccc2c1 [RPM185]
% PTP activity (at 20 μM): 71 ± 3% (3) at 20 uM

O=C(O)c1ccc2cc(C(=O)Nc3c(O)cccc3C(=O)O)ccc2c1 [RPM204]
IC50: 33 to 100 µM
% PTP activity (at 20 μM): 68 ± 5% (3) at 20 uM

O=C(O)c1ccc2cc(C(=O)Nc3ccccc3)ccc2c1 [RPM183]
% PTP activity (concentration not given): 79 ± 16 (7) %

CC(C)NS(=O)(=O)c1ccc2c(c1)/C(=C/Nc1ccccc1[N+](=O)[O-])C(=O)N2 [RPM303, 3-[(2-Nitrophenylamino)methylene]-2-oxo-2,3-dihydro-1H-indole-5-sulfonic acid isopropylamide]
% PTP activity (at 20 μM): 46 ± 1% (2) 20 μM

CNC(=O)c1cccc(N/N=C2\C(=O)Nc3ccc(S(=O)(=O)NC(C)C)cc32)c1 [RPM330, 3-[N′-(5-Isopropylsulfamoyl-2-oxo-1,2-dihydro-indol-3-ylidene)hydrazino]-N-methylbenzamide]
% PTP activity (at 20 μM): 47 ± 1% (2) at 20 μM

NS(=O)(=O)c1ccc2c(c1)/C(=N/Nc1ccccc1C(=O)O)C(=O)N2 [RPM188, 2-[N′-(2-Oxo-5-sulfamoyl-1,2-dihydro-indol-3-ylidene)hydrazino]benzoic acid]
% PTP activity (at 20 μM): 65 ± 3% (3) at 20 μM

CCN(CC)C(=O)c1ccc2c(c1)/C(=N/Nc1ccccc1C(=O)O)C(=O)N2 [HL2-070-1]
% PTP activity (at 20 μM): 100.18% (1) at 20 μM

CCN(CC)C(=O)c1ccc2c(c1)/C(=N/Nc1cccc(C(=O)O)c1)C(=O)N2 [HL2-070-2]
% PTP activity (at 20 μM): 57.16% (1) at 20 μM

O=C1Nc2ccc(S(=O)(=O)NCc3ccc(Cl)cc3)cc2/C1=N/Nc1ccccc1C(=O)O [RPM191, 2-[N′-[5-(4-Chloro-benzylsulfamoyl)-2-oxo-1,2-dihydro-indol-3-ylidene]hydrazino}benzoic acid]
IC50: 33 to 100 µM
% PTP activity (at 20 μM): 65.07% and 53.99%

COC(=O)c1ccc2cc(C(=O)Nc3c(O)cccc3C(=O)O)ccc2c1 [RPM202]
IC50: 33 to 100 µM
% PTP activity (at 20 μM): 58 ± 7% (3) at 20 uM

O=C1Nc2ccc(S(=O)(=O)NCc3ccco3)cc2/C1=N/Nc1ccccc1Cl [HL2-016-11]
% PTP activity (concentration not given): 55 ± 7% (6)

CC(C)NS(=O)(=O)c1ccc2c(c1)/C(=N/Nc1cccc(C(=O)NCc3cccnc3)c1)C(=O)N2 [RPM332, 3-[N′-(5-Isopropylsulfamoyl-2-oxo-1,2-dihydro-indol-3-ylidene)hydrazino]-N-pyridin-3-ylmethylbenzamide]
IC50: 33 to 100 µM
% PTP activity (at 20 μM): 54 ± 7% (2) at 20 μM

O=C1C=CC2C(=C1O)Oc1c(ccc(O)c1O)C2C1CCCCC1C(=O)O (stereo not shown) [NSC-119910, reference compound]
% PTP activity (concentration not given): 0.56 ± 0.1% (3)

CC(C)NS(=O)(=O)c1ccc2c(c1)/C(=N/Nc1ccccc1C(=O)NCCN1CCOCC1)C(=O)N2 [RPM293, 2-[N′-(5-Isopropylsulfamoyl-2-oxo-1,2-dihydro-indol-3-ylidene)hydrazino]-N-(2-morpholin-4-yl-ethyl)benzamide]
% PTP activity (at 20 μM): 49 ± 6% (2) At 20 μM

COc1ccc(CNS(=O)(=O)c2ccc3c(c2)/C(=N/Nc2ccccc2[N+](=O)[O-])C(=O)N3)cc1 [RPM138, 3-[(2-Nitrophenyl)hydrazono]-2-oxo-2,3-dihydro-1H-indole-5-sulfonic acid 4-methoxybenzylamide]
% PTP activity (concentration not given): 36 ± 4% (6)

O=C1Nc2ccc(S(=O)(=O)NCc3ccccn3)cc2/C1=N/Nc1ccccc1Cl [HL2-016-7]
% PTP activity (concentration not given): 41 ± 23% (12)

O=C1Nc2ccc(S(=O)(=O)O)cc2/C1=N/Nc1ccccc1F [RPM220, 2-Oxo-3-[(2-fluorophenylhydrazono)]-2,3-dihydro-1H-indole-5-sulfonic acid]
% PTP activity (at 20 μM): 73 ± 10% (3) at 20 μM

O=C1Nc2ccc(S(=O)(=O)NCc3cccs3)cc2/C1=N/Nc1ccccc1Cl [HL2-016-6]
% PTP activity (concentration not given): 51 ± 3% (6)

CC(C)CNS(=O)(=O)c1ccc2c(c1)/C(=N/Nc1ccccc1Cl)C(=O)N2 [HL2-016-10]
% PTP activity (concentration not given): 36 ± 17 (12) %

O=C1Nc2ccc(S(=O)(=O)O)cc2/C1=N/Nc1c(Cl)cccc1Cl [RPM218, 2-Oxo-3-[(2,6-dichlorophenylhydrazono)]-2,3-dihydro-1H-indole-5-sulfonic acid]
IC50: 33 to 100 µM
% PTP activity (at 20 μM): 53 ± 0.1% (2) at 20 μM
